ChEMBL document CHEMBL6114985, “From Dyrk1A inhibitors to a novel class of antiviral agents: Targeting Enterovirus EV-A71 with 2-aryl-substituted thiophene scaffolds” (Eur J Med Chem, 2025)

Tests used:
Enterovirus A71 [1] = test: Antiviral activity against Enterovirus A71 TW/2231/98 infected in human RD cells assessed as reduction in cytopathic effect incubated for 3 days; format: functional, organism-based; details: Enterovirus A, TW/2231/98, RD, 72 h
[2] = Cytotoxicity against human RD cells assessed as reduction in cell growth incubated for 3 days by MTT assay; format: toxicity, cell-based; details: time 3 day
[3] = Selectivity index, ratio of CC50 for human RD cells to EC50 for antiviral activity against enterovirus A71 TW/2231/98 infected in human RD cells; format: toxicity, cell-based; details: read-out: Ratio CC50/EC50
[4] = target: Dual specificity tyrosine-phosphorylation-regulated kinase 1A (Homo sapiens, UniProt Q13627); test: Inhibition of DYRK1A (unknown origin) at 25 uM incubated for 1 hr relative to control
Enterovirus A71 [5] = test: Antiviral activity against Enterovirus A71 2231 assessed as reduction in viral replication; format: functional, organism-based; details: Enterovirus A
Enterovirus A71 [6] = test: Antiviral activity against Enterovirus A71 4798 assessed as reduction in viral replication; format: functional, organism-based; details: Enterovirus A
enterovirus D68 [7] = test: Antiviral activity against Enterovirus D68 2795 assessed as reduction in viral replication; format: functional, organism-based; details: Enterovirus D
enterovirus D68 [8] = test: Antiviral activity against Enterovirus D68 KY 18953 assessed as reduction in viral replication; format: functional, organism-based; details: Enterovirus D
Coxsackievirus = test: Antiviral activity against Coxsackievirus assessed as reduction in viral replication; format: functional, organism-based
Human rhinovirus sp. = test: Antiviral activity against Human rhinovirus 71803 assessed as reduction in viral replication; format: functional, organism-based
Influenza A virus = test: Antiviral activity against influenza A virus assessed as reduction in viral replication; format: functional, organism-based
[9] = Lipophilicity, logD of compound by UPLC-MS analysis; format: physicochemical; details: octanol/water
[10] = Metabolic stability in mouse liver microsome assessed as half life incubated for 120 mins by HPLC-MS/MS; format: ADME; details: liver microsomes
[11] = Metabolic stability in mouse liver microsome assessed as intrinsic clearance incubated for 120 mins by HPLC-MS/MS; format: ADME; details: liver microsomes, read-out: CLH
[12] = Metabolic stability in human liver microsome assessed as half life incubated for 120 mins by HPLC-MS/MS; format: ADME; details: liver microsomes
[13] = Metabolic stability in human liver microsome assessed as intrinsic clearance incubated for 120 mins by HPLC-MS/MS; format: ADME; details: liver microsomes, read-out: CLH
[14] = Stability in mouse plasma assessed as half life by HPLC-MS/MS; format: ADME, cell-free
[15] = Stability in human plasma assessed as half life by HPLC-MS/MS; format: ADME, cell-free
[16] = Plasma protein binding in human by rapid equilibrium dialysis based HPLC-MS/MS analysis; format: ADME, cell-free; details: read-out: PPB (converted)
[17] = Cytotoxicity against human A549 cells infected with Human adenovirus; format: toxicity, cell-based
[18] = Cytotoxicity against human A549 cells infected with Herpes Simplexvirus; format: toxicity, cell-based; details: A549 cells infected with herpes simplex virus
Enterovirus A71 [19] = test: Antiviral activity against Enterovirus A71 TW/2231/98 infected in human RD cells assessed as inhibition of viral plaque formation at 45 uM incubated for 3 to 5 days by crystal violet staining based plaque reduction assay relative to control; format: functional; details: Enterovirus A, TW/2231/98, RD, time 3-5 day
Human adenovirus sp. = test: microbe, parasite or virus in culture; details: A549
Herpes Simplexvirus = test: microbe, parasite or virus in culture; details: A549
[20] = Plasma protein binding in mouse by rapid equilibrium dialysis based HPLC-MS/MS analysis; format: ADME, cell-free; details: read-out: PPB (converted)

Row | Compound | EC50 (Enterovirus A71 [1]) [µM] | CC50 at 72 h [2] [µM] | selectivity ratio [3] | other results
1 | COc1ccc(F)c(C(=O)Nc2cncc(-c3cc(-c4cccnc4C)cs3)c2)c1 | 9.1 | 15.6 | 1.7 | –
2 | COc1ccc(F)c(C(=O)Nc2cncc(-c3cc(-c4ccccc4)cs3)c2)c1 | > 10 | – | – | –
3 | COc1cccc(C(=O)Nc2cncc(-c3cc(Br)cs3)c2)c1F | 8.9 | – | – | –
4 | COc1ccc(F)c(C(=O)Nc2cncc(-c3cc(-c4cccnc4F)cs3)c2)c1 | 8.7 | > 100 | > 11.5 | –
5 | COc1ccc(Cl)c(C(=O)Nc2cncc(-c3cc(-c4cccnc4)cs3)c2)c1F | 5.7 | > 100 | > 17.5 | inhibition [4]: 95%
6 | COc1ccc(F)c(S(=O)(=O)Nc2cncc(-c3cccs3)c2)c1 | > 10 | – | – | –
7 | COc1ccc(F)c(C(=O)Nc2cc(-c3cccs3)ccn2)c1 | 2.4 | 33.5 | 14 | inhibition [4]: 4%
8 | COc1ccc(C(=O)Nc2cncc(-c3cc(-c4cccnc4)cs3)c2)cc1OC | > 10 | – | – | –
9 | COc1cc(C(=O)Nc2cncc(-c3cc(-c4cccnc4)cs3)c2)ccc1F | > 10 | – | – | –
10 | COc1cccc(C(=O)Nc2cncc(-c3cccs3)c2)c1F | 4.7 | 52.8 | 11.2 | –
11 | COc1ccc(F)c(C(=O)Nc2cncc(-c3cn(-c4cccnc4)nn3)c2)c1 | > 10 | – | – | –
12 | O=C(Nc1cncc(-c2cccs2)c1)c1c(F)cc(F)cc1F | 5.4 | 45.3 | 8.4 | EC50 (Enterovirus A71 [5]): 5.4 µM; EC50 (Enterovirus A71 [6]): 7.3 µM; EC50 (enterovirus D68 [7]): 5 µM; EC50 (enterovirus D68 [8]): 5.4 µM; EC50 (Coxsackievirus): 9.9 µM; EC50 (Human rhinovirus sp.): 7.5 µM; EC50 (Influenza A virus): > 10 µM
13 | COc1ccc(F)c(C(=O)Nc2cncc(-c3cc(-c4cccnc4)cs3)c2)c1Cl | 5.2 | > 100 | > 19.2 | inhibition [4]: 93%; logD [9]: 3.22; half-life [10]: 10 min; microsomal CLint [11]: 137 µL/min/mg; half-life [12]: 25 min; microsomal CLint [13]: 56 µL/min/mg; half-life [14]: > 240 min; half-life [15]: > 240 min; fraction unbound [16]: 0.0029; EC50 (Enterovirus A71 [5]): 5.2 µM; EC50 (Enterovirus A71 [6]): 4 µM; EC50 (enterovirus D68 [7]): 5.1 µM; EC50 (enterovirus D68 [8]): 3.7 µM; EC50 (Coxsackievirus): > 10 µM; EC50 (Human rhinovirus sp.): 6.9 µM
14 | COc1cc(C(=O)Nc2cncc(-c3cc(Br)cs3)c2)ccc1C | > 10 | – | – | –
15 | COc1ccc(C(=O)Nc2cncc(-c3cc(-c4cccnc4)cs3)c2)cc1F | > 10 | – | – | –
16 | COc1ccc(F)c(C(=O)Nc2cncc(-c3ncns3)c2)c1 | > 10 | – | – | –
17 | COc1ccc(F)c(C(=O)Nc2cncc(-c3cc(-c4ccncc4)cs3)c2)c1 | > 10 | – | – | –
18 | COc1ccc(F)c(C(=O)Nc2cncc(-c3cccnc3)c2)c1 | > 10 | – | – | –
19 | COc1ccc(C(=O)Nc2cncc(-c3cc(-c4cccnc4)cs3)c2)c(F)c1 | > 10 | – | – | –
20 | COc1cc(C(=O)Nc2cncc(-c3cccs3)c2)ccc1C | > 10 | – | – | –
21 | COc1ccc(F)c(C(=O)Nc2cncc(-c3cc(-c4cccnc4)cs3)c2)c1F | 2.6 | 20 | 7.7 | inhibition [4]: 81%
22 | COc1ccc(F)c(C(=O)Nc2cncc(-c3cccs3)n2)c1 | > 10 | – | – | –

Row | Compound | EC50 (Enterovirus A71 [1]) [µM] | CC50 at 72 h [2] [µM] | selectivity ratio [3] | other results
23 | COc1ccc(F)c(C(=O)Nc2cccc(-c3cccs3)n2)c1 | > 10 | – | – | –
24 | COc1ccc(F)c(C(=O)Nc2ccnc(-c3cccs3)c2)c1 | > 10 | – | – | –
25 | COc1cc(OC)cc(C(=O)Nc2cncc(-c3cc(-c4cccnc4)cs3)c2)c1 | > 10 | – | – | –
26 | COc1ccc(F)c(C(=O)Nc2cncc(-c3cc4ccccc4s3)c2)c1 | 8.7 | 47.3 | 5.4 | –
27 | COc1ccc(F)c(C(=O)Nc2cncc(-c3cncs3)c2)c1 | > 10 | – | – | –
28 | O=C(Nc1cncc(-c2cc(-c3cccnc3)cs2)c1)c1ccc(O)cc1 | > 10 | > 10 | – | –
29 | COc1ccc(F)c(C(=O)Nc2cncc(-c3cc(-c4cn[nH]c4)cs3)c2)c1 | 5.4 | 19.6 | 3.6 | –
30 | COc1cc(C(=O)Nc2cncc(-c3cc(-c4cccnc4)cs3)c2)ccc1C | > 10 | – | – | –
31 | COc1ccc2c(c1)[nH]c1c(C)nccc12 [HARMINE] | – | – | – | CC50 [17]: > 20 µM; CC50 [18]: > 20 µM; inhibition at 45 µM (Enterovirus A71 [19]): 40%; EC50 (Human adenovirus sp.): 5.7 µM; EC50 (Herpes Simplexvirus): 3.3 µM
32 | O=C(Nc1cncc(-c2cc(-c3cccnc3)cs2)c1)c1ccc(OC(F)(F)F)cc1 | > 10 | – | – | –
33 | COc1ccc(Cl)c(C(=O)Nc2cncc(-c3cc(-c4cccnc4)cs3)c2)c1 | > 10 | – | – | –
34 | CCOC(=O)c1ccc(OCCC2CCN(c3ccc(C)nn3)CC2)cc1 [PIRODAVIR] | 0.6 | > 10 | > 16.7 | –
35 | COc1ccc(F)c(CNc2cncc(-c3cccs3)c2)c1 | > 10 | – | – | –
36 | COc1ccc(F)c(C(=O)Nc2cncc(-c3nccs3)c2)c1 | > 10 | – | – | –
37 | COc1ccc(F)c(C(=O)Nc2cncc(-c3ccccc3)c2)c1 | > 10 | – | – | –
38 | COc1ccc(F)c(C(=O)Nc2cncc(-c3cccs3)c2)c1 | 4.3 | 75.7 | 17.6 | inhibition [4]: 0%; logD [9]: 3.52; half-life [10]: 11 min; microsomal CLint [11]: 127 µL/min/mg; half-life [12]: 31.5 min; microsomal CLint [13]: 44 µL/min/mg; half-life [14]: > 240 min; half-life [15]: > 240 min; fraction unbound [20]: 0.038; fraction unbound [16]: 0.0165; EC50 (Enterovirus A71 [5]): 4.3 µM; EC50 (Enterovirus A71 [6]): 5.5 µM; EC50 (enterovirus D68 [7]): 3.6 µM; EC50 (enterovirus D68 [8]): 3.5 µM; EC50 (Coxsackievirus): 3.9 µM; EC50 (Human rhinovirus sp.): 4.8 µM; EC50 (Influenza A virus): > 10 µM
39 | COc1ccc(F)c(C(=O)N(C)c2cncc(-c3cc(-c4cccnc4)cs3)c2)c1 | > 10 | – | – | –
40 | COc1c(F)ccc(C(=O)Nc2cncc(-c3cc(-c4cccnc4)cs3)c2)c1F | > 10 | – | – | –
41 | CC(C)(C)Oc1ccc(C(=O)Nc2cncc(-c3cc(-c4cccnc4)cs3)c2)cc1 | > 10 | – | – | –
42 | COc1cccc(C(=O)Nc2cncc(-c3cc(-c4cccnc4)cs3)c2)c1F | 7.2 | 21.3 | 3 | –
43 | COc1ccc(F)c(C(=O)Nc2cncc(-c3cc(-c4cnccc4C)cs3)c2)c1 | 9.1 | 18.1 | 2 | –
